pIC50: −log10 of the molar value.
System: 435261-313-R-J1-PDC complex spheroid viability
Assay: Anticancer human tumor 435261-313-R-J1-PDC patient-derived colon adenocarcinoma cell line growth inhibition [GQUAD]
Conditions: for pIC50: curve of first compound; for viability, T/C: stronger effect = lower value
Excerpt: DNA G-quadruplex Stabilizer Agents in Combinations in Complex Spheroids
A high-throughput screen of multi-cell type tumor spheroids was designed to identify active combinations of DNA G-quadruplex stabilizer agents and targeted small molecules. Complex spheroids include a stromal component modeled by human endothelial cells (HUVEC) and fibroblasts modeled by human mesenchymal stem cells (MSCs). The concentration ranges selected for each drug and investigational agent were based upon clinically achievable concentrations if the clinical Cmax of the agent was known.
Compounds. The drugs and investigational agents: pidnarulex (CX-5461; NSC782164), APTO-253 (NSC789042), BRACO-19 (NSC847499), peposertib (NSC802822), ceralasertib (NSC780249), elimusertib (NSC800525), camonsertib (NSC841442), AZD-1390 (NSC803789), olaparib (NSC753686), talazoparib (NSC767125), ART-558 (NSC835418), sotorasib (NSC818433), MRTX-1133 (NSC836407), SN-38 (NSC673596), topotecan (NSC609699), etoposide (NSC141540), doxorubicin (NSC123127), gemcitabine (NSC613327), 5-fluorouracil (NSC19893), paclitaxel (NSC125973), vemurafenib (NSC761431), panobinostat (NSC761190), R-306465 (JNJ-16241199; NSC773264), adavosertib (NSC754352), TP-3654 (NSC805149), carboplatin (NSC241240), KSQ-4279 (NSC840948), and staurosporine (NSC755774) were obtained from the National Cancer Institute (NCI) Developmental Therapeutics Program Chemical Repository (34). The FDA-approved anticancer drug set is available from the NCI Developmental Therapeutics Program. […] The stock solutions were prepared in dimethyl sulfoxide (DMSO, Sigma-Aldrich, St. Louis, MO, cat. D2650) at 800-fold the tested concentration and stored at -70 degrees C prior to their use. All drugs and investigational agents were tested over a range starting from a high concentration at or near the clinical Cmax and decreasing in half-log increments. If the clinical Cmax for an agent had not been determined, the highest concentration tested was 10 microM.
2.3 Cell Culture. All cells were maintained in an incubator at 37 degrees C and 5% CO2 with 95% humidity. The PDC lines were cultured according to standard operating procedures established by the NCI PDMR. All PDCs were thawed and cultured in Matrigel-coated flasks prepared with a working solution of 1X Ham's F-12 nutrient mix, without supplementation (Invitrogen, cat. 11765054), 100 U/mL penicillin-streptomycin (Invitrogen, cat. 15140122), and 2.5% Matrigel (Corning Inc., cat. 354248) for the first three passages. The 857933-349-R-J2-PDC line was cultured in 6C/Colon 1B media, which includes advanced DMEM/F-12 (Thermo Fisher Scientific, cat. 12634028), 10 mM HEPES (Thermo Fisher Scientific, cat. 15630080), 1X GlutaMAX supplement (Thermo Fisher Scientific, cat. 35050061), 0.1 mg/mL primocin (InvivoGen, cat. ant-pm-2), 10% defined fetal bovine serum, heat inactivated (HyClone Laboratories Inc., cat. SH30070.03HI), 50% L-WRN conditioned media (ATCC, cat. CRL-3276), 1.25 mM N-Acetyl-L-cysteine (Sigma-Aldrich, cat. A9165), 10 mM nicotinamide (Sigma-Aldrich, cat. N0636), 1X B-27 supplement (Thermo Fisher Scientific, cat. 17504044), 1X N-2 supplement (Thermo Fisher Scientific, cat. 17502048), 10 microM Y-27632 dihydrochloride (Tocris Bioscience, cat. 1254), and 50 ng/mL human EGF recombinant protein (Thermo Fisher Scientific, cat. PHG0311). The 485176-168-R4-J1-PDC line was cultured in Panc media, which includes all 6C/Colon 1B media components plus 100 ng/mL human FGF-10 (Thermo Fisher Scientific, cat. 100-26), 500 nM SB-431542 (Selleckchem, cat. S1067), and gastrin (Tocris, cat. 3006).
[…]

[1] = second compound 0.0316 µM, first compound 0.0316 µM
[2] = second compound 0.0316 µM, first compound 0.316 µM
[3] = second compound 0.1 µM, first compound 0.0316 µM
[4] = second compound 0.1 µM, first compound 0.316 µM
[5] = second compound 0.316 µM, first compound 0.0316 µM
[6] = second compound 0.316 µM, first compound 0.316 µM
[7] = second compound 1 µM, first compound 0.0316 µM
[8] = second compound 1 µM, first compound 0.316 µM
[9] = second compound 3.16 µM, first compound 0.0316 µM
[10] = second compound 3.16 µM, first compound 0.316 µM
[11] = second compound 10 µM, first compound 0.0316 µM
[12] = second compound 10 µM, first compound 0.316 µM
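Further: spheroids exposed to the agents for seven days before readout.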
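Wherever viability, T/C is given: percent of vehicle control viability with DMSO wells as 100%.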

Cc1[nH]c2ccccc2c1CCNCc1ccc(/C=C/C(=O)NO)cc1 + Cc1[nH]c2ccc(F)cc2c1-c1nc2c3cccnc3c3ncccc3c2[nH]1
pIC50 (second compound 0.0316 µM): 7.01
pIC50 (second compound 0.1 µM): 6.98
pIC50 (second compound 0.316 µM): 7.11
pIC50 (second compound 1 µM): 6.97
pIC50 (second compound 3.16 µM): > 9.00
pIC50 (second compound 10 µM): > 9.00
viability, T/C (second compound 0.0316 µM, first compound 0.000999 µM): 86%
viability, T/C (second compound 0.0316 µM, first compound 0.00316 µM): 70.3%
viability, T/C (second compound 0.0316 µM, first compound 0.00999 µM): 77.2%
viability, T/C [1]: 98.1%
viability, T/C (second compound 0.0316 µM, first compound 0.0999 µM): 49.4%
viability, T/C [2]: 4.41%
viability, T/C (second compound 0.1 µM, first compound 0.000999 µM): 91.7%
viability, T/C (second compound 0.1 µM, first compound 0.00316 µM): 65.4%
viability, T/C (second compound 0.1 µM, first compound 0.00999 µM): 96.8%
viability, T/C [3]: 66.1%
viability, T/C (second compound 0.1 µM, first compound 0.0999 µM): 53.1%
viability, T/C [4]: 11.9%
viability, T/C (second compound 0.316 µM, first compound 0.000999 µM): 64.1%
viability, T/C (second compound 0.316 µM, first compound 0.00316 µM): 81.8%
viability, T/C (second compound 0.316 µM, first compound 0.00999 µM): 61.8%
viability, T/C [5]: 68.1%
viability, T/C (second compound 0.316 µM, first compound 0.0999 µM): 45.2%
viability, T/C [6]: 9.8%
viability, T/C (second compound 1 µM, first compound 0.000999 µM): 46.7%
viability, T/C (second compound 1 µM, first compound 0.00316 µM): 71.7%
viability, T/C (second compound 1 µM, first compound 0.00999 µM): 49.9%
viability, T/C [7]: 58.6%
viability, T/C (second compound 1 µM, first compound 0.0999 µM): 52.1%
viability, T/C [8]: 7.21%
viability, T/C (second compound 3.16 µM, first compound 0.000999 µM): 41.2%
viability, T/C (second compound 3.16 µM, first compound 0.00316 µM): 39.5%
viability, T/C (second compound 3.16 µM, first compound 0.00999 µM): 24.2%
viability, T/C [9]: 33.8%
viability, T/C (second compound 3.16 µM, first compound 0.0999 µM): 26%
viability, T/C [10]: 0.48%
viability, T/C (second compound 10 µM, first compound 0.000999 µM): 29.5%
viability, T/C (second compound 10 µM, first compound 0.00316 µM): 28.2%
viability, T/C (second compound 10 µM, first compound 0.00999 µM): 28.1%
viability, T/C [11]: 33.3%
viability, T/C (second compound 10 µM, first compound 0.0999 µM): 27.8%
viability, T/C [12]: 0.79%

Cc1cccc(N(C)C(=O)C2C(O)CCN2c2nc(C)cc(C(F)(F)F)c2C#N)c1 (centres undefined) + Cc1[nH]c2ccc(F)cc2c1-c1nc2c3cccnc3c3ncccc3c2[nH]1
pIC50 (second compound 0.0316 µM): < 5.00
pIC50 (second compound 0.1 µM): < 5.00
pIC50 (second compound 0.316 µM): < 5.00
pIC50 (second compound 1 µM): < 5.00
pIC50 (second compound 3.16 µM): > 7.50
pIC50 (second compound 10 µM): > 7.50
viability, T/C [1]: 123%
viability, T/C (second compound 0.0316 µM, first compound 0.1 µM): 111%
viability, T/C [2]: 121%
viability, T/C (second compound 0.0316 µM, first compound 1 µM): 91.4%
viability, T/C (second compound 0.0316 µM, first compound 3.16 µM): 97.2%
viability, T/C (second compound 0.0316 µM, first compound 10 µM): 92.3%
viability, T/C [3]: 106%
viability, T/C (second compound 0.1 µM, first compound 0.1 µM): 141%
viability, T/C [4]: 138%
viability, T/C (second compound 0.1 µM, first compound 1 µM): 135%
viability, T/C (second compound 0.1 µM, first compound 3.16 µM): 117%
viability, T/C (second compound 0.1 µM, first compound 10 µM): 113%
viability, T/C [5]: 76.1%
viability, T/C (second compound 0.316 µM, first compound 0.1 µM): 105%
viability, T/C [6]: 104%
viability, T/C (second compound 0.316 µM, first compound 1 µM): 104%
viability, T/C (second compound 0.316 µM, first compound 3.16 µM): 117%
viability, T/C (second compound 0.316 µM, first compound 10 µM): 115%
viability, T/C [7]: 95.2%
viability, T/C (second compound 1 µM, first compound 0.1 µM): 86.7%
viability, T/C [8]: 152%
viability, T/C (second compound 1 µM, first compound 1 µM): 129%
viability, T/C (second compound 1 µM, first compound 3.16 µM): 117%
viability, T/C (second compound 1 µM, first compound 10 µM): 59%
viability, T/C [9]: 30.2%
viability, T/C (second compound 3.16 µM, first compound 0.1 µM): 41.4%
viability, T/C [10]: 38.5%
viability, T/C (second compound 3.16 µM, first compound 1 µM): 44.9%
viability, T/C (second compound 3.16 µM, first compound 3.16 µM): 47.7%
viability, T/C (second compound 3.16 µM, first compound 10 µM): 42.9%
viability, T/C [11]: 27.1%
viability, T/C (second compound 10 µM, first compound 0.1 µM): 27.7%
viability, T/C [12]: 33.7%
viability, T/C (second compound 10 µM, first compound 1 µM): 27.1%
viability, T/C (second compound 10 µM, first compound 3.16 µM): 28.7%
viability, T/C (second compound 10 µM, first compound 10 µM): 23.5%

Reference: PubChem BioAssay AID2060494 (Molecular Pharmacology Branch, DTP, NCI, 2025)
